Results on eight compounds are retold here after ChEMBL document CHEMBL1201862, “PubChem BioAssay data set” (2004).

Assay [1] in a line: inhibitors of intracellular T. cruzi replication, confirmation, NIH3T3 host cells, beta-gal luminescence (AID 2044).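 Also: intracellular parasites grown in NIH/3T3 mouse fibroblasts as host cells; luminescent beta-galactosidase reporter signal from transgenic T. cruzi replicating inside host cells; inhibitors lower the luminescence signal.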 The format is functional, cell-based.
A short description of assay [2]: cytotoxicity toward NIH3T3 fibroblasts, dose response, counter-screen, cell-based, ATP luminescence, mouse fibroblasts (AID 2010).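 Also: cells exposed to compound for about 90 hours before reading.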 The format is functional.
In assay [3] the target is Protein Wnt-3a (Mus musculus, UniProt P27467). The assay can be described thus: Wnt3a-driven reporter signaling inhibition, dose response, selectivity assay for Gli-SUFU antagonist project, Wnt-LIGHT cells, luminescence (AID 651570).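 Also: Wnt-LIGHT reporter cells stimulated with conditioned medium from Wnt3a-producing cells.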 To be noted: read-out: IC50_Mean. The format is functional.
In assay [4] the target is T1, Hexokinase-1 (Homo sapiens, UniProt P19367).
T1 sequence (P19367 whole entry): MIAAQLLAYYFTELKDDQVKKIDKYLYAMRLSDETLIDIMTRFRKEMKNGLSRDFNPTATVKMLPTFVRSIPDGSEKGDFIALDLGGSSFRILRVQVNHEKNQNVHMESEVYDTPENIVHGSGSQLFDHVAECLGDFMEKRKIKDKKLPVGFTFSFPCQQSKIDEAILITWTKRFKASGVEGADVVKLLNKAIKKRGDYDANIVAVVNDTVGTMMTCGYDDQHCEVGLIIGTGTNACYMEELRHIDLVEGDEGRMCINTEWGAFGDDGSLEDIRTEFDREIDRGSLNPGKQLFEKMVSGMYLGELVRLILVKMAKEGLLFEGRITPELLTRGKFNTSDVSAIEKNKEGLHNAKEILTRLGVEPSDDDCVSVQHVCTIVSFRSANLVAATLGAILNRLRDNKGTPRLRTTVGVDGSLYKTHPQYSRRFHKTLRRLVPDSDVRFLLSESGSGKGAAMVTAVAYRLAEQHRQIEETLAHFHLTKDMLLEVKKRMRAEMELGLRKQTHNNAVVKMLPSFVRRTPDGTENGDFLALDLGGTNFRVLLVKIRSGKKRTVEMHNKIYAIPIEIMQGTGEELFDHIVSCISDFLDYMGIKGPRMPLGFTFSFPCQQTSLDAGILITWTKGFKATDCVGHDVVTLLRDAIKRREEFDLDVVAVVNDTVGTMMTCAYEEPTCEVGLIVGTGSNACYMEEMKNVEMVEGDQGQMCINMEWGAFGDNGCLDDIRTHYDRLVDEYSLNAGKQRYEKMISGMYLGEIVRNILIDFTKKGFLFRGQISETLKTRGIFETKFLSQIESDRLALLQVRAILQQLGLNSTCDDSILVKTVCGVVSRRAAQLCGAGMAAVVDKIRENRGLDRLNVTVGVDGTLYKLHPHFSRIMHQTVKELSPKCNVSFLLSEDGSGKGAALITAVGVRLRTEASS
The assay is described as follows: SAR analysis of small molecule inhibitors of hexokinase domain containing I (HKDC1) in the hexokinase 1 selectivity assay. [Related pubchem assays (depositor defined):AID493160, AID493190]. The format is functional.

Assay [5] concerns the target T2, Hexokinase HKDC1 (Homo sapiens, UniProt Q2TB90).
T2 sequence (Q2TB90 whole entry): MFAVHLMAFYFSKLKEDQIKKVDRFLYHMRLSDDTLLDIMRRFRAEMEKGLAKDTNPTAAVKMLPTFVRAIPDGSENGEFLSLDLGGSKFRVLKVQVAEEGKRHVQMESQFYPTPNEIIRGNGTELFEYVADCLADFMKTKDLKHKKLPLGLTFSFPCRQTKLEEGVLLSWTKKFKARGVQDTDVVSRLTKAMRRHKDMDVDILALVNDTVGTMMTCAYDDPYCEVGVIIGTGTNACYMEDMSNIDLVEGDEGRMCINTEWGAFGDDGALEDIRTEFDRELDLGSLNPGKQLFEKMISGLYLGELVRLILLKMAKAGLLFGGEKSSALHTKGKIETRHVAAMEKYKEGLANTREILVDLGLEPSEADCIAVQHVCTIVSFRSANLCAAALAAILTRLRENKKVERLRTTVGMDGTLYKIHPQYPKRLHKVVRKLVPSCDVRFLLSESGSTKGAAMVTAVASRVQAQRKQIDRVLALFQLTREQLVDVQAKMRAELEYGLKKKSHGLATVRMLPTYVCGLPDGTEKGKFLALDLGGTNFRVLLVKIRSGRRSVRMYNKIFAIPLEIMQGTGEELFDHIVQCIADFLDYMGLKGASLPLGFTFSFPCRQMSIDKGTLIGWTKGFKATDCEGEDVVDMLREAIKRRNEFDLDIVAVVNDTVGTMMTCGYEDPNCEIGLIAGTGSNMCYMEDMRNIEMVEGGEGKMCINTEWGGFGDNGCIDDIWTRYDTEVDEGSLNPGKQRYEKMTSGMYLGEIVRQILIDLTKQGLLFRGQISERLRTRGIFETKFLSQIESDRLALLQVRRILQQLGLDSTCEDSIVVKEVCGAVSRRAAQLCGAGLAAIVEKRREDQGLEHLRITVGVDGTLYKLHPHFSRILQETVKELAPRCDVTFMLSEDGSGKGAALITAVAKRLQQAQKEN
The assay can be described thus: SAR analysis of small molecule inhibitors of hexokinase domain containing I (HKDC1). [Related pubchem assays (depositor defined):AID493160, AID493190]. The format is functional.

A short description of assay [6]: ARNT/TACC3 interaction disruptors, potency, confirmation, biochemical, AlphaScreen, cherry-picked samples (AID 651703).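 Also: His-tagged ARNT PAS-B domain paired with GST-TACC3 E629A dimer coactivator fragment; potency of inhibitors that break up the complex and lower AlphaScreen signal.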 The assay is classed as functional, Homo sapiens. (Alpha assays give light when donor and acceptor beads are brought close together.)
Assay [7] concerns the target Potassium voltage-gated channel subfamily KQT member 2 (Rattus norvegicus, UniProt O88943). The assay can be described thus: KCNQ2 potassium channel inhibitors, dose response, cell-based, automated electrophysiology, set II, rat KCNQ2 (AID 588637). The assay is classed as functional.
In assay [8] the target is T3, Interleukin-8 (Homo sapiens, UniProt P10145).
T3 sequence (P10145 whole entry): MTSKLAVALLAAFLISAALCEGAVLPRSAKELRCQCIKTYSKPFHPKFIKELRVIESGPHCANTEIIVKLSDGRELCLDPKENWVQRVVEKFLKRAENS
The assay can be described thus: Dose Response confirmation of uHTS small molecule hits for cystic fibrosis induced NFkb Inhibitors in a PAF-induced IL8 counterscreen. To be noted: read-out: IC50_Mean. The assay is classed as functional.

Assay [9] concerns the target T4, Apoptotic protease-activating factor 1 (Homo sapiens, UniProt O14727).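 Also: caspase-3 cleavage of fluorogenic Rh110 DEVD substrate downstream of apoptosome activation.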
T4 sequence (O14727 whole entry): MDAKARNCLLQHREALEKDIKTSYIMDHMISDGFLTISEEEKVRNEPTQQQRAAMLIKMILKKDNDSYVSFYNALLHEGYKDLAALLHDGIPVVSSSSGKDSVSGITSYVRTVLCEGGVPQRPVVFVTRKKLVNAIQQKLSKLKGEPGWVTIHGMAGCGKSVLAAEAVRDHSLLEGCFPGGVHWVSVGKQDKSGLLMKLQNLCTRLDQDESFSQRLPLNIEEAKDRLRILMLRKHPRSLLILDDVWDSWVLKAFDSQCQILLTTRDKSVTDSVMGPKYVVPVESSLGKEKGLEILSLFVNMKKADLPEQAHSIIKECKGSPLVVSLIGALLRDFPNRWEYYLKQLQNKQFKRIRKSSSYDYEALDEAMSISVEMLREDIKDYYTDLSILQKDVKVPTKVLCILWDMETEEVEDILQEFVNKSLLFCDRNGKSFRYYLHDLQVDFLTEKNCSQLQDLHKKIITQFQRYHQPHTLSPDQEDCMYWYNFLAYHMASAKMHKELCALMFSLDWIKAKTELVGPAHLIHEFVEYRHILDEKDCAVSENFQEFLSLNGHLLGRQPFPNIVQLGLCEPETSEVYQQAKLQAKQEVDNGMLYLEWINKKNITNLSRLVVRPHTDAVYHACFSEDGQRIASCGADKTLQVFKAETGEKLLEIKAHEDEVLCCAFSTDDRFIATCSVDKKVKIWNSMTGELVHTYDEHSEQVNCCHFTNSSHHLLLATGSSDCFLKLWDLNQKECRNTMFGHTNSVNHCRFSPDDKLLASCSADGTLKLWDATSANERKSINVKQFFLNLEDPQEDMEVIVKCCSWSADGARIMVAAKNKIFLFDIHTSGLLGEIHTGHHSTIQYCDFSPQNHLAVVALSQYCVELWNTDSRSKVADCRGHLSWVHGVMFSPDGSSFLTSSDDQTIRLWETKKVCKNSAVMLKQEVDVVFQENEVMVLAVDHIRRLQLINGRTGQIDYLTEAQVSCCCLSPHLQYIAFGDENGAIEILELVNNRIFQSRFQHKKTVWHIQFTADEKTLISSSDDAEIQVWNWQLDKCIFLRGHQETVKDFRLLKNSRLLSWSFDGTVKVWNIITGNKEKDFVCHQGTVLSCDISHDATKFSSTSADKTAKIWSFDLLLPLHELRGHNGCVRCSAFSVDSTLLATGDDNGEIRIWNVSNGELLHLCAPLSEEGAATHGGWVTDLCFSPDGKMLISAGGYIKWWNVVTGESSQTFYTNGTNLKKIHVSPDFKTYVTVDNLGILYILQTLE
The assay can be described thus: SAR analysis of small molecule Activators of Apaf-1 in a Fluorescent assay. The assay is classed as functional. As to conditions: read-out: EC50_Mean.

Assay [10] has as its target T5, Aminopeptidase N (Plasmodium falciparum FcB1/Columbia, UniProt O96935).
T5 sequence (O96935 whole entry): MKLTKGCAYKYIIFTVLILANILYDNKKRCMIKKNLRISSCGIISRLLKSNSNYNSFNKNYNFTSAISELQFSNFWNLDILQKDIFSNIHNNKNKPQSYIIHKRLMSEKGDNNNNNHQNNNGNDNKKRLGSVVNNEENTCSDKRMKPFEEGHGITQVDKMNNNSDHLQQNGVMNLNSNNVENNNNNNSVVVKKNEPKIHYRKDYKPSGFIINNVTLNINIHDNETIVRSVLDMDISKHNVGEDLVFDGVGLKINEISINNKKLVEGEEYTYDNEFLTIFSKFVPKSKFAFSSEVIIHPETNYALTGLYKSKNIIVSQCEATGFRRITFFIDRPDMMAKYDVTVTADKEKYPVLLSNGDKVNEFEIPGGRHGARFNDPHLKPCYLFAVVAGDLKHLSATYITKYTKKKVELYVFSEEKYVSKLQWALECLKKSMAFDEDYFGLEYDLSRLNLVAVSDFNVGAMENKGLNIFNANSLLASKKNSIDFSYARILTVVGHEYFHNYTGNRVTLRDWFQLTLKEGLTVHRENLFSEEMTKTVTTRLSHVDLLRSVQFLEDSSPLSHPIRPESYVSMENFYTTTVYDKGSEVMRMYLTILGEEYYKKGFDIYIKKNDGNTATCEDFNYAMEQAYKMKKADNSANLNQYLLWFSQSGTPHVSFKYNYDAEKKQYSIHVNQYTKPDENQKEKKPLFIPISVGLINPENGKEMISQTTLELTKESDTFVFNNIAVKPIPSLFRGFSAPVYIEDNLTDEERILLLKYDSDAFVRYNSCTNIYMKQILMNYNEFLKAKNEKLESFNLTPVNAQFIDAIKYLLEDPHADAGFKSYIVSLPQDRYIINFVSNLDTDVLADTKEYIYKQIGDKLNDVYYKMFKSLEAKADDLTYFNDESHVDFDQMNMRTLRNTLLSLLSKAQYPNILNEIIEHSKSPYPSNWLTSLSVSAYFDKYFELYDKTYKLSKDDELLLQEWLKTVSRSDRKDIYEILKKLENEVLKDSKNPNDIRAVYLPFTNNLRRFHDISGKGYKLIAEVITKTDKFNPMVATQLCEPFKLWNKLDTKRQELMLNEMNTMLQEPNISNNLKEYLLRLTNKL
The assay is described as follows: P. falciparum M1AAP inhibitors, biochemical, fluorogenic H-Leu-NHMec substrate, 1536-well (AID 1445). Also on record: species or system Plasmodium falciparum 3D7, 3D7.

Assay [11] deals with T6, High affinity choline transporter 1 (Homo sapiens, UniProt Q9GZV3).
T6 sequence (Q9GZV3 whole entry): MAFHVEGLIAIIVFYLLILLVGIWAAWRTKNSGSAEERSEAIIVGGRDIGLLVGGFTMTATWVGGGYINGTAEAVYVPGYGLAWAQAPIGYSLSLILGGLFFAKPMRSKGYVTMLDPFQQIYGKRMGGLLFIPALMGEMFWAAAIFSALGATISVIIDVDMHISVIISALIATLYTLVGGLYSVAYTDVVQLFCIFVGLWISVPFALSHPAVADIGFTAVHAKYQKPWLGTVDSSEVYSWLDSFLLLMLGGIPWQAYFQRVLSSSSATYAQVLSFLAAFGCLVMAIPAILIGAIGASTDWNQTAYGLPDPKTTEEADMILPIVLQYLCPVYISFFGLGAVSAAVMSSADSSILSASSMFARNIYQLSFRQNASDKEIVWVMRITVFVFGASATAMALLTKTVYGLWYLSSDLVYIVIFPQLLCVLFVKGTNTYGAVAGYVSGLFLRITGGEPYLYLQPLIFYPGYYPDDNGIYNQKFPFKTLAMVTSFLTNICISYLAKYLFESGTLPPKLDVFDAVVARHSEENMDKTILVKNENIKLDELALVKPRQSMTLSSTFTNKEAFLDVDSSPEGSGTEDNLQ
The assay can be described thus: CHT inhibitors, dose response, cell-based, 5-point CRC, membrane potential dye (AID 504840). The format is functional.

Assay [12] concerns the target T6, High affinity choline transporter 1. The assay is described as follows: CHT inhibitors, dose response, cell-based, 10-point CRC, membrane potential dye (AID 588401).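 Also: membrane potential dye fluorescence of choline-evoked depolarization via CHT.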 The assay is classed as functional.

Activity calls are given as the source filed them.

Chain of Potassium voltage-gated channel subfamily KQT member 2 (O88943 whole entry): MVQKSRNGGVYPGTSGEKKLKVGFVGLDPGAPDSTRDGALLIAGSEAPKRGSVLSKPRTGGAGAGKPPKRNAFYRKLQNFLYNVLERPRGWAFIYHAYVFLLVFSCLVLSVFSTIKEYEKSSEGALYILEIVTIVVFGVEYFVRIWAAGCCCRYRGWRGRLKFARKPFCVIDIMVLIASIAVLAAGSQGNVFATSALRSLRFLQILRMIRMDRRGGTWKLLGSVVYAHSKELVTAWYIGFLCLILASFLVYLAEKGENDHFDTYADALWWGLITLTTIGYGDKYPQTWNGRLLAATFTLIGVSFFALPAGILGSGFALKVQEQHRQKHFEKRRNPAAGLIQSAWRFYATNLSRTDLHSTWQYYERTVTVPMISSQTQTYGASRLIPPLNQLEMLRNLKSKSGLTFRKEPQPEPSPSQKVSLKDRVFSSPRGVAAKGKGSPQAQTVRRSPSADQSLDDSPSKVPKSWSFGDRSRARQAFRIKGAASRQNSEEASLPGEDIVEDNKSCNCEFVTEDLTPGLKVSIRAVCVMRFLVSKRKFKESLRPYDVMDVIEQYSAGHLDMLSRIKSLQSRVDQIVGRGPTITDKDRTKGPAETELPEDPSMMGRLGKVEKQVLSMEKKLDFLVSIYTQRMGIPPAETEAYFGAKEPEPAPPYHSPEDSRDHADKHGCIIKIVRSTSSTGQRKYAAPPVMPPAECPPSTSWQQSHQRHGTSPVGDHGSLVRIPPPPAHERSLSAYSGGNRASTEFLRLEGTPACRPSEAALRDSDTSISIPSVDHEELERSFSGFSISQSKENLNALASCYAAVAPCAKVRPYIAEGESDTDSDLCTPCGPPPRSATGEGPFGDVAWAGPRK
Chain of Protein Wnt-3a (P27467 whole entry): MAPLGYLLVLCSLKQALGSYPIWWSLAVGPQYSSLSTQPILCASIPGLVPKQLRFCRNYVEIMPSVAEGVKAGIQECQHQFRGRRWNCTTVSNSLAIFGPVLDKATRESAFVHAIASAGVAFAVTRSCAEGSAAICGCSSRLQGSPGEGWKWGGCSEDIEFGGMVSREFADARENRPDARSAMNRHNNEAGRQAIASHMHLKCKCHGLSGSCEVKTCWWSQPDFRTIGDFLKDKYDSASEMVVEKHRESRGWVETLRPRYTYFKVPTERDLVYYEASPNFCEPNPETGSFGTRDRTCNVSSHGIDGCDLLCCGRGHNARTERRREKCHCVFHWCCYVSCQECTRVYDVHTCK

For `c1ccc(-c2c[n+](-c3ccccc3)c3n2CCS3)cc1`, the EC50 is 2.27 µM (active) in assay [1] and > 60 µM (inconclusive) in assay [2]. Also, in [3], the IC50 is 3.05 µM (active).

Regarding `COc1cccc(/C=C/c2nc3ccccc3c(=O)n2Cc2ccccc2)c1`, the IC50 in [4] and in assay [5] was > 80 µM (inactive) each time.

As for `COc1cccc(/C=N/NC(=O)CNC(=O)c2cccnc2)c1O`, the half-maximal activity concentration (AC50) (commonly the midpoint of the concentration-response curve, whichever way the signal moves) in assay [6] is 81.1 µM (active). For `COc1ccccc1N1CCN(C(=O)C(Cc2ccccc2)NC(=O)C2CCCCC2)CC1` (centres undefined), the IC50 in assay [7] is 5.72 µM (active). For `CC(C)C[C@@H](CN1CCCC1CN1C(=S)NC[C@@H]1Cc1ccc(O)cc1)N1C[C@H](Cc2ccc(O)cc2)N(CCc2ccccc2)C1=S` (some centres undefined), the IC50 in assay [8] was 9.82 µM (active). With `CCOc1ccccc1NC(=O)CCS(=O)(=O)c1cc2c(cc1Cl)NC(=O)CO2`, the EC50 in assay [9] is > 100 µM (inactive). Consider `COc1cc2c(cc1OC)-c1cc(N3CCc4ccccc4C3)nc(=O)n1CC2`, for which the IC50 in assay [4] was 69 µM (inactive); in [5], 65.7 µM (inactive). For `Cc1cccc(C)c1-n1cccc1/C=C1/C(=N)N2C(=NC1=O)SN=C2S(C)(=O)=O`, the values for the IC50 in assay [10], in assay [11] and in assay [12] were 34.4 µM (active), 8.3 µM (active) and 4.47 µM (active), respectively.
